Activity calls are given as the source filed them. The rule behind the calls is not given here.
Key:
Histamine H3 receptor [1] = target: T1, Histamine H3 receptor (Homo sapiens, UniProt Q9Y5N1); test: Displacement of bodilisant from recombinant human histamine H3 receptor stably transfected in HEK-293T cells membrane at 1 to 10 uM incubated for 60 mins by fluorescence-polarization assay; assay type: cell membranes; settings: Cell membrane, dose 1-10 µM
Histamine H3 receptor [2] = target: T1, Histamine H3 receptor; test: Displacement of [3H]Nalpha-methylhistamine from recombinant human histamine H3 receptor stably transfected in HEK-293T cells membrane incubated for 90 mins by scintillation counting method; assay type: cell membranes, Cell membrane
Histamine H3 receptor [3] = target: T1, Histamine H3 receptor; test: Agonist activity at human H3 receptor expressed in HEK293 cells preincubated for 30 mins followed by [35S]-GTPgammaS addition and measured after 30 mins by liquid scintillation counting method; assay type: functional, cell-based; settings: time 60.0 min
Histamine H3 receptor [4] = target: T1, Histamine H3 receptor; test: Antagonist activity at human H3 receptor expressed in HEK293 cells assessed as reversion of (R)alpha-MeHA induced activity preincubated for 30 mins followed by [35S]-GTPgammaS addition and measured after 30 mins by liquid scintillation counting method; assay type: functional, cell-based; settings: filed as antagonist, time 60.0 min
Histamine H3 receptor [5] = target: T1, Histamine H3 receptor; test: Partial agonist activity at human H3 receptor stably transfected in CHO-DUKX cells assessed as […] by measuring reduction in forskolin level by HitHunter-cAMP assay relative to histamine; assay type: functional, cell-based
Histamine H3 receptor [6] = target: T1, Histamine H3 receptor; test: Antagonist activity at human H3 receptor expressed in CHO cells assessed as decrease in cAMP accumulation by measuring increase in forskolin level incubated for 4 hrs in presence of histamine by CRE/MRE-luciferase reporter gene assay; assay type: functional, cell-based
Histamine H3 receptor [7] = target: T1, Histamine H3 receptor; test: Agonist activity at human H3 receptor expressed in CHO cells assessed as […] by measuring reduction in forskolin level incubated for 4 hrs by CRE/MRE-luciferase reporter gene assay; assay type: functional, cell-based

T1 sequence (Q9Y5N1 whole entry): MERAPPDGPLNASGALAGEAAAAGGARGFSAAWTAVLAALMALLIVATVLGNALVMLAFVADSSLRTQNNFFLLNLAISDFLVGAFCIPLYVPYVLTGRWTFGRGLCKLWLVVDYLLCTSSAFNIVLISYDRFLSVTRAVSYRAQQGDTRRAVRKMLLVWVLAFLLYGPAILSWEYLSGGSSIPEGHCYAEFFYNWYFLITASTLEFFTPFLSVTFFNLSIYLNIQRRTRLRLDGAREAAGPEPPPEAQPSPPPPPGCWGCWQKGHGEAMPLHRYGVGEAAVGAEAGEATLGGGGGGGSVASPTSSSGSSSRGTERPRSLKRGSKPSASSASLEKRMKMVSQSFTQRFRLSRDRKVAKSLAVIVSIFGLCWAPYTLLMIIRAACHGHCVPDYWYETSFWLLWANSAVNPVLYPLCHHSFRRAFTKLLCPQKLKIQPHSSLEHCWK

SMILES: Clc1ccc(CCCOCCCN2CCCCC2)cc1
- Activity (Histamine H3 receptor [1]; filed as antagonist): Active

SMILES: COc1cc(NC2(c3cccc(Cl)c3)C(=O)N(C(C)(C)C)C(=O)C2=Cc2ccccc2)cc(OC)c1OC (centres undefined)
- Ki (Histamine H3 receptor [2]): 3200 nM
- Activity (Histamine H3 receptor [1]): inactive
- Activity (Histamine H3 receptor [3]): inactive
- Activity (Histamine H3 receptor [4]): Active
- Ratio (Histamine H3 receptor [5]): 0.14
- Activity (Histamine H3 receptor [6]): inactive

SMILES: N=C(N)SCCc1cnc[nH]1 [IMETIT]
- EC50 (Histamine H3 receptor [7]): 2.9 nM

SMILES: CC1=CC(C)=[N+]2C1=C(c1ccc(OCCCN3CCCCC3)cc1)c1c(C)cc(C)n1[B-]2(F)F
- Kd (Histamine H3 receptor [2]): 1.9 nM
